Experimental data: publication PMC6237300, “Influenza B viruses circulated during last 5 years in Mongolia” (PLoS ONE, 2018)

Columns and labels:
[1] = molecular target: NA of B/Khentii/1137/2014 (G140R) (Influenza B virus, UniProt U5XBU0, G140R); assay type: biochemical
[2] = molecular target: NA of B/Ulaanbaatar/1113/2014 (I114T) (Influenza B virus, UniProt U5XBU0, I114T); assay type: biochemical
[3] = molecular target: NA of B/Darkhan/1484/2014 (H101N, E105K) (Influenza B virus, UniProt U5XBU0, E105K/H101N); assay type: biochemical
[4] = molecular target: NA of B/Ulaanbaatar/1495/2014 (E105K) (Influenza B virus, UniProt U5XBU0, E105K); assay type: biochemical
[5] = molecular target: NA of B/Ulaanbaatar/1708/2014 (G104R) (Influenza B virus, UniProt U5XBU0, G104R); assay type: biochemical
[6] = tested on: neuraminidase of the influenza B virus with H273Y mutation; details: cited from earlier work

SMILES | susceptibility category [1] | susceptibility category [2] | susceptibility category [3] | susceptibility category [4] | Fold increase [1] | IC50 [1] | Fold increase [5] | IC50 [5] | Fold increase [2] | IC50 [2] | Fold increase [3] | IC50 [3] | resistance of H273Y mutant [6] | Fold increase [4] | IC50 [4]
[H]/N=C(\N)N[C@H]1C=C(C(=O)O)O[C@@H]([C@H](OC)[C@H](O)CO)[C@@H]1NC(C)=O [Laninamivir, laninamivir] | sensitive | sensitive | reduced susceptibility | reduced susceptibility | – | – | – | – | – | – | – | – | – | – | –
CCC(CC)[C@H](NC(C)=O)[C@@H]1[C@H](O)[C@@H](C(=O)O)C[C@H]1N=C(N)N [Peramivir, peramivir] | reduced susceptibility | reduced susceptibility | highly reduced susceptibility | highly reduced susceptibility | 10 | 0.00718 µM | >100000 | 288 µM | 10 | 0.0118 µM | 2500 | 1.53 µM | resistant | 5000 | 3.27 µM
